Measurements reported in patent publication US10385103B2, “Cell-permeable (ICP)-SOCS3 recombinant protein and uses thereof” (CELLIVERY THERAPEUTICS, INC., priority 2014, dated 2019).
Entries after “also recorded” stand apart in the source; their conditions may differ.

Tests used:
RAW 264.7 cells [1] = experiment: Quantitative cell-permeability of FITC-labeled aMTD- or rPeptide-fused CRA recombinant proteins (flow cytometry); assay type: cell-based; settings: for Relative Ratio to aMTD AVE: cell-permeability of rPeptide-fused CRA recombinant protein relative to average of 240 aMTDs
Outline: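 Uptake of fluorescently labeled, peptide-fused cargo proteins was quantified by flow cytometry (Guava, Millipore) and analyzed in FlowJo software. RAW 264.7 cells received 10 μM FITC-labeled protein for 1 hour at 37° C., were rinsed three times with cold PBS, and were trypsinized with 0.25% tripsin/EDTA for 20 minutes at 37° C. to remove bound protein before measurement. Permeability was expressed relative to reference proteins.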

RAW 264.7 cells [2] = experiment: Cell-permeability of FITC-labeled SOCS3 recombinant proteins (flow cytometry); assay type: cell-based; settings: 10 μM FITC-labeled protein, 1 hr, 37° C.
Procedure: To examine cell-permeability of SOCS3 recombinant protein, SOCS3 recombinant proteins were conjugated to 5/6-fluorescein isothiocyanate (FITC). RAW 264.7 (KCLB, Seoul, South Korea) (FIG. 20) or NIH3T3 cells (KCLB, Seoul, South Korea) (FIG. 21) were treated with 10 μM FITC-labeled SOCS3 recombinant proteins and cultivated for 1 hr at 37° C.
In this regard, RAW 264.7 cells were cultured in a DMEM medium containing 10% fetal bovine serum (FBS, Hyclone, USA) and […] of 1% penicillin/streptomycin (Hyclone, USA).
After cultivation, the cells were washed three times with ice-cold PBS (Phosphate-buffered saline, Hyclone, USA) and treated with proteinase K (10 μg/mL, SIGMA, USA) to remove surface-bound proteins, and internalized proteins were measured by flow cytometry (FlowJo cytometric analysis software, Guava, Millipore, Darmstadt, Germany). Untreated cells (gray) and equimolar concentration of unconjugated FITC (FITC only, green)-treated cells were served as control (FIG. 20). Each of NIH3T3 cells was incubated for 1 hour at 37° C. with 10 μM FITC-labeled SOCS3 protein. For nuclear staining, a mixture of […] Mounting Medium (Vector laboratories, Burlingame, Calif.) and DAPI (4′,6-diamidino-2-phenylindole) was added to NIH3T3 cells, and visualized using a confocal laser microscope (LSM700, Zeiss, Germany) (FIG. 21).

AGS cells = experiment: Induction of apoptosis by Annexin V/7-AAD staining in gastric carcinoma cells; assay type: cell-based; settings: 10 uM, 14 hours
Procedure: AGS cells (gastric carcinoma cell line) (American Type Culture Collection; ATCC) were seeded in a 12-well plate at a density of 1×10^5 cells/well, and then treated with 10 uM of aMTD/SD-fused SOCS3 for 14 hours. Cancer cell death was analyzed by Annexin V analysis. Annexin V/7-Aminoactinomycin D (7-AAD) staining was performed using flow cytometry according to the manufacturer's guidelines (BD Pharmingen, San Diego, Calif., USA). Briefly, cells were washed three times with ice-cold PBS. The cells were then resuspended in 100 μl of binding buffer and incubated with 1 μl of 7-AAD and 1 μl of annexin V-PE for 30 min in the dark at 37° C. Flow cytometric analysis was immediately performed using a guava easyCyte™ 8 Instrument (Merck Millipore, Darmstadt, Germany).

[3] = Solubility/yield of SOCS3 recombinant proteins expressed and purified from E. coli; assay type: physicochemical
Procedure: Thereafter, the recombinant protein gene-introduced E. coli was inoculated in 7 ml of LB medium, and then incubated at 37° C. overnight. The E. coli was inoculated in 700 ml of LB medium and incubated at 37° C. until OD600 reached 0.6. To this culture medium, 0.6 mM of isopropyl-β-D-thiogalactoside (IPTG, Gen Depot, USA) was added as a protein expression inducer, followed by further incubation at 37° C. for 3 hours. This culture medium was centrifuged at 4° C. and 8,000 rpm for 10 minutes and a supernatant was discarded to recover a cell pellet. The cell pellet thus recovered was suspended in a lysis buffer (100 mM NaH2PO4, 10 mM Tris-HCl, 8 M Urea, pH 8.0), and cells were disrupted by sonication (on/off time: 30 sec/30 sec, on time 2 hours, amplify 40%), and centrifuged at 15,000 rpm for 30 min to obtain a soluble fraction and an insoluble fraction.
After purification, the proteins were put in a SnakeSkin Dialysis Tubing bag (pore size: 10000 mw, Thermo scientific, USA) and then they were dialyzed by physiological buffer (DMEM). The strain lysate where protein expression was not induced, the strain lysate where protein expression was induced by addition of IPTG, and purified proteins were loaded on SDS-PAGE to analyze protein expression characteristics and expression levels (FIGS. 19 and 20).
Solubility of aMTD/SD-fused SOCS3 proteins was scored on a 5 point scale compared with that of SOCS3 proteins lacking the solubilization domain.

[4] = cell-permeability of aMTD-fused CRA recombinant protein relative to negative control (A: rP38)
[5] = cell-permeability of aMTD-fused CRA recombinant protein relative to reference CPP (B: MTM12)
[6] = cell-permeability of aMTD-fused CRA recombinant protein relative to reference CPP (C: MTD85)
[7] = cell-permeability relative to negative control rP38 (A type), aMTD-fused CRA recombinant protein, 10 μM FITC-labeled, 1 hour, 37° C., RAW 264.7 cells
[8] = cell-permeability relative to reference CPP MTD85 (C type), aMTD-fused CRA recombinant protein, 10 μM FITC-labeled, 1 hour, 37° C., RAW 264.7 cells
[9] = cell-permeability relative to reference CPP MTM12 (B type), aMTD-fused CRA recombinant protein, 10 μM FITC-labeled, 1 hour, 37° C., RAW 264.7 cells
[10] = relative cell-permeability of aMTD vs reference A (not defined)
[11] = relative cell-permeability of aMTD vs reference CPP B: MTM12
[12] = relative cell-permeability of aMTD vs reference CPP C: MTD85
[13] = 10 μM FITC-labeled, 1 hour, 37° C., RAW 264.7 cells

Molecule | Relative Ratio (Fold) A (RAW 264.7 cells [1]; [4]) | Relative Ratio (Fold) B (RAW 264.7 cells [1]; [5]) | Relative Ratio (Fold) C (RAW 264.7 cells [1]; [6]) | also measured
895 (AIIIVVPAIAAP; Amino acid Sequence of aMTD895) [compound 895] | 60.8 Fold | 40.7 Fold | 20.6 Fold | 
896 (AILIVVAPIAAP; Amino acid Sequence of aMTD896) [compound 896] | 57.5 Fold | 38.5 Fold | 19.4 Fold | 
897 (AVIVPVAIIAAP; Amino acid Sequence of aMTD897) [compound 897] | 11.2 Fold | 7.5 Fold | 3.8 Fold | Relative Ratio (Fold) A (RAW 264.7 cells [1]; [7]): 11.2 Fold; Relative Ratio (Fold) C (RAW 264.7 cells [1]; [8]): 3.8 Fold; Relative Ratio (Fold) B (RAW 264.7 cells [1]; [9]): 7.5 Fold
899 (AVVIALPAVVAP; Amino acid Sequence of aMTD899) [compound 899] | 164.2 Fold | 109.9 Fold | 55.5 Fold | Relative Ratio (Fold) A (RAW 264.7 cells [1]; [10]): 164.2 Fold; Relative Ratio (Fold) B (RAW 264.7 cells [1]; [11]): 109.9 Fold; Relative Ratio (Fold) C (RAW 264.7 cells [1]; [12]): 55.5 Fold
900 (ALVAVIAPVVAP; Amino acid Sequence of aMTD900) [compound 900] | 34.3 Fold | 22.9 Fold | 11.6 Fold | 
901 (ALVAVLPAVAVP; Amino acid Sequence of aMTD901) [compound 901] | 7.7 Fold | 5.1 Fold | 2.6 Fold | 
902 (ALVAPLLAVAVP; Amino acid Sequence of aMTD902) [compound 902] | 7.6 Fold | 5.1 Fold | 2.6 Fold | 
904 (AVLAVVAPVVAP; Amino acid Sequence of aMTD904) [compound 904] | 106.7 Fold | 70.8 Fold | 35.8 Fold | Relative Ratio (Fold) A (RAW 264.7 cells [1]; [10]): 105.7 Fold
905 (AVIAVAPLVVAP; Amino acid Sequence of aMTD905) [compound 905] | 44.0 Fold | 29.5 Fold | 14.9 Fold | 
906 (AVIALAPVVVAP; Amino acid Sequence of aMTD906) [compound 906] |  |  |  | Relative Ratio (Fold) A (RAW 264.7 cells [1]; [7]): 6.8 Fold; Relative Ratio (Fold) C (RAW 264.7 cells [1]; [8]): 2.3 Fold; Relative Ratio (Fold) B (RAW 264.7 cells [1]; [9]): 4.6 Fold
910 (VAALLPAVVVAP; Amino acid Sequence of aMTD910) [compound 910] | 149.5 Fold | 99.4 Fold | 50.2 Fold | 
911 (VALALPAVVVAP; Amino acid Sequence of aMTD911) [compound 911] | 84.8 Fold | 56.8 Fold | 28.7 Fold | Relative Ratio (Fold) A (RAW 264.7 cells [1]; [10]): 84.8 Fold; Relative Ratio (Fold) B (RAW 264.7 cells [1]; [11]): 56.8 Fold; Relative Ratio (Fold) C (RAW 264.7 cells [1]; [12]): 28.7 Fold
921 (IWWFVVLPLVVP; Amino acid Sequence of rPeptide ID 921) [compound 921] |  |  |  | Relative Ratio to aMTD AVE (RAW 264.7 cells [1]; [13]): 0.14; Relative Ratio (Fold) A (RAW 264.7 cells [1]; relative cell-permeability of rPeptide vs reference A (not defined)): 2.8 Fold; Relative Ratio (Fold) B (RAW 264.7 cells [1]; relative cell-permeability of rPeptide vs reference CPP B: MTM12): 1.9 Fold; Relative Ratio (Fold) C (RAW 264.7 cells [1]; relative cell-permeability of rPeptide vs reference CPP C: MTD85): 0.9 Fold
934 (LILAPAAVVAAA; Amino acid Sequence of rPeptide ID 934) [compound 934] |  |  |  | Relative Ratio to aMTD AVE (RAW 264.7 cells [1]; [13]): 0.28
938 (VPVLLPVVVPVP; Amino acid Sequence of rPeptide ID 938) [compound 938] |  |  |  | Relative Ratio to aMTD AVE (RAW 264.7 cells [1]; [13]): 0.28
964 (ALLVIAPAIAVP; Amino acid Sequence of aMTD864) [compound 964] | 8.2 Fold | 4.8 Fold | 2.8 Fold | 
M165S3B: his-tag-removed aMTD165-SOCS3-SDB recombinant protein (protein, Amino acid sequence of E.coli codon usage optimized M165S3B′, his-tag-removed aMTD165-SOCS3-SDB recombinant protein) ALAVPVALAIVPVTHSKFPAAGMSRPLDTSLRLKTFSSKSEYQLVVNAVRKLQESGFYWSAVTGGEANLLLSAEPAGTFLIRDSSDQRHFFTLSVKTQSGTKNLRIQCEGGSFSLQSDPRSTQPVPRFDCVLKLVHHYMPPPGAPSFPSPPTEPSSEVPEQPSAQPLPGSPPRRAYYIYSGGEKIPLVLSRPLSSNVATLQHLCRKTVNGHLDSYEKVTQLPGPIREFLDQYDAPLMAEQSDKDVKYYTLEEIQKHKDSKSTWLILHHKVYDLTKFLEEHPGGEEVLGEQAGGDATENFEDVGHSTDARELSKTYIIGELHPDDRSKIAKPSETL |  |  |  | cell-permeability (protein uptake) (RAW 264.7 cells [2]): high cell permeability; induction of apoptosis (Annexin V) (AGS cells): showed high anticancer efficacy; also recorded: efficacy equivalent to or higher than HM165S3B; solubility/yield [3]: high solubility/yield
